Measured values: US20080312435A1, “Imine Compound” (TAISHO PHARMACEUTICAL CO., LTD., priority 2004, published 2008)

Columns and labels:
human CB2 receptor = target: T1, human CB2 receptor (Homo sapiens, UniProt P34972); experiment: Human CB2 receptor binding inhibition test ([3H]CP-55,940, CHO membrane fractions); details: [3H]CP-55,940, membrane fractions of CHO cells stably expressing human CB2 receptor, 25° C., 2 hours; read-out: CB2 IC50 (Inhibition of binding to human CB2 receptor)
T1 construct: expressed in transfected cells
How it was run: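 Membranes from CHO-DHFR(−) cells stably expressing human CB2 used for [3H]CP-55,940 binding; filter-bound radioactivity counted by scintillation after washes with 0.1% BSA buffer. Nonspecific binding defined with 2.0 μM CP-55,940; IC50 for inhibition of specific binding.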

T1 sequence (P34972 whole entry): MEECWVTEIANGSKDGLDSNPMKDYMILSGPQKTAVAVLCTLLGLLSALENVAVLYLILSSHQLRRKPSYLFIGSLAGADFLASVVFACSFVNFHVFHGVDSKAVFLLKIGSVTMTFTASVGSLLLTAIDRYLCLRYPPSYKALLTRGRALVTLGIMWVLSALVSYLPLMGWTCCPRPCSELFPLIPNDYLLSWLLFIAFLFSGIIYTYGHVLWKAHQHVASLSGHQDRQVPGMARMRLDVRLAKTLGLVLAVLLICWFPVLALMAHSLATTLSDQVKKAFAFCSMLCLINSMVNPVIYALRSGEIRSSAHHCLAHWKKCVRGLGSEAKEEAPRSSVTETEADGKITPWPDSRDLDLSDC

| SMILES | IC50 (human CB2 receptor) [nM] | melting point [°C] |
| --- | --- | --- |
| Cc1ccc(C(=O)/N=c2\sc(C(C)(C)C)c(C)n2CC2CC2)c(C)c1 [compound 216] | 1.7 | 100 to 101 |
| Cc1ccc(C)c(C(=O)/N=c2\sc(C(C)(C)C)c(C)n2CC2CC2)c1 [compound 217] | 2.6 | 106 to 107 |
| Cc1cccc(C)c1C(=O)/N=c1\sc(C(C)(C)C)c(C)n1CC1CC1 [compound 218] | 5.7 | 98 to 100 |
| Cc1c(C(C)(C)C)s/c(=N\C(=O)c2cc(C(F)(F)F)ccc2C(F)(F)F)n1CC1CC1 [compound 220] | 3.9 | 159 to 161 |
| Cc1c(C(C)(C)C)s/c(=N\C(=O)c2cc(F)ccc2F)n1CC1CC1 [compound 221] | 15.6 | 170 to 172 |
| Cc1c(C(C)(C)C)s/c(=N\C(=O)c2ccc(F)cc2F)n1CC1CC1 [compound 224] | 13 | 111 to 112 |
| Cc1c(C(C)(C)C)s/c(=N\C(=O)c2ccc(Cl)cc2F)n1CC1CC1 [compound 226] | 7.7 | 108 to 110 |
| Cc1c(C(C)(C)C)s/c(=N\C(=O)c2ccc(Br)cc2F)n1CC1CC1 [compound 227] | 8.2 | 121 to 131 |
| Cc1c(C(C)(C)C)s/c(=N\C(=O)c2cc(Br)ccc2F)n1CC1CC1 [compound 230] | 1.5 | 113 to 114 |
| Cc1c(C(C)(C)C)s/c(=N\C(=O)c2cc(I)ccc2F)n1CC1CC1 [compound 231] | 3 | 95 to 96 |
| COc1ccc(OC)c(C(=O)/N=c2\sc(C(C)(C)C)c(C)n2CC2CC2)c1 [compound 234] | 0.7 | 83 to 85 |
| CCOc1ccc(OCC)c(C(=O)/N=c2\sc(C(C)(C)C)c(C)n2CC2CC2)c1 [compound 238] | 4.4 | 97 to 99 |
| Cc1ccc(F)c(C(=O)/N=c2\sc(C(C)(C)C)c(C)n2CC2CC2)c1 [compound 239] | 2.4 | 117 to 119 |
| Cc1ccc(F)cc1C(=O)/N=c1\sc(C(C)(C)C)c(C)n1CC1CC1 [compound 241] | 1 | 91 to 93 |
| Cc1cc(Cl)ccc1C(=O)/N=c1\sc(C(C)(C)C)c(C)n1CC1CC1 [compound 242] | 4 | 108 to 109 |
| Cc1cccc(Cl)c1C(=O)/N=c1\sc(C(C)(C)C)c(C)n1CC1CC1 [compound 244] | 3.2 | 159 to 160 |
| Cc1cccc(Br)c1C(=O)/N=c1\oc(C(C)(C)C)c(C)n1CC1CC1 [compound 248] | 5.6 | 89 to 90 |
| Cc1c(C(C)(C)C)s/c(=N\C(=O)c2cc(C(F)(F)F)ccc2F)n1CC1CC1 [compound 251] | 3.4 | 113 to 115 |
| Cc1c(C(C)(C)C)s/c(=N\C(=O)c2cc(F)ccc2C(F)(F)F)n1CC1CC1 [compound 254] | 1.4 | 110 to 112 |
| Cc1c(C(C)(C)C)s/c(=N\C(=O)c2cc(C(F)(F)F)ccc2Cl)n1CC1CC1 [compound 257] | 1.3 | 100 to 102 |
| Cc1c(C(C)(C)C)s/c(=N\C(=O)c2cc(Br)ccc2OC(F)F)n1CC1CC1 [compound 266] | 0.8 | 169 to 170 |

| SMILES | IC50 (human CB2 receptor) [nM] | melting point [°C] |
| --- | --- | --- |
| CCOc1ccc(C(F)(F)F)cc1C(=O)/N=c1\sc(C(C)(C)C)c(C)n1CC1CC1 [compound 268] | 1.1 | 140 to 142 |
| Cc1c(C(C)(C)C)s/c(=N\C(=O)c2cc(C(F)(F)F)ccc2OC(C)C)n1CC1CC1 [compound 269] | 3.6 | 106 to 108 |
| COCCOc1ccc(C(F)(F)F)cc1C(=O)/N=c1\sc(C(C)(C)C)c(C)n1CC1CC1 [compound 270] | 0.7 | 108 to 110 |
| Cc1c(C(C)(C)C)s/c(=N\C(=O)C2=C(NCCO)C=CC(C(F)(F)F)C2)n1CC1CC1 (centres unmarked) [compound 272] | 5 | 131 to 133 |
| CCN(C)c1ccc(C(F)(F)F)cc1C(=O)/N=c1\sc(C(C)(C)C)c(C)n1CC1CC1 [compound 274] | 13.2 | 101 to 103 |
| Cc1c(C(C)(C)C)s/c(=N\C(=O)c2cc(C(F)(F)F)ccc2N(C)C)n1CC1CC1 [compound 277] | 9 | 126 to 128 |
| Cc1c(C(C)(C)C)s/c(=N\C(=O)c2ccc(F)c(F)c2F)n1CC1CC1 [compound 282] | 14.5 | 82 to 84 |
| Cc1c(C(C)(C)C)s/c(=N\C(=O)c2cc(F)c(F)cc2F)n1CC1CC1 [compound 283] | 5.9 | 78 to 79 |
| Cc1c(C(C)(C)C)s/c(=N\C(=O)c2cc(F)c(F)cc2Cl)n1CC1CC1 [compound 284] | 1.2 | 112 to 114 |
| Cc1c(C(C)(C)C)s/c(=N\C(=O)c2ccc(F)c(Cl)c2F)n1CC1CC1 [compound 285] | 14.2 | 76 to 77 |
| Cc1ccc(C(=O)/N=c2\sc(C(C)(C)C)c(C)n2CC2CC2)c(F)c1F [compound 287] | 13.5 | 122 to 124 |
| Cc1cccnc1C(=O)/N=c1\sc(C(C)(C)C)c(C)n1CC1CC1 [compound 293] | 7 | 88 to 89 |
| Cc1c(C(C)(C)C)s/c(=N/C(=O)c2cnccc2C(F)(F)F)n1CC1CC1 [compound 298] | 1.5 | 74 to 76 |
| Cc1c(C(C)(C)C)s/c(=N/C(=O)c2cccnc2F)n1CC1CC1 [compound 300] | 15 | 83 to 84 |
| Cc1c(C(C)(C)C)s/c(=N\C(=O)c2nccnc2Cl)n1CC1CC1 [compound 305] | 3.7 | 115 to 116 |
| Cc1c(C(C)(C)C)s/c(=N\C(=O)c2cc(Cl)ncc2Cl)n1CC1CC1 [compound 307] | 1 | 110 to 112 |
| CCOc1ncccc1C(=O)/N=c1\sc(C(C)(C)C)c(C)n1CC1CC1 [compound 310] | 17.3 | 102 to 104 |
| CSc1ncccc1C(=O)/N=c1\sc(C(C)(C)C)c(C)n1CC1CC1 [compound 312] | 14 | 138 to 139 |
| Cc1nc(F)ccc1C(=O)/N=c1\sc(C(C)(C)C)c(C)n1CC1CC1 [compound 316] | 5.3 | 67 to 69 |
| Cc1c(C(C)(C)C)s/c(=N\C(=O)c2ccc([N+](=O)[O-])o2)n1CC1CC1 [compound 319] | 18.6 | 129 to 130 |
| Cc1c(C(C)(C)C)s/c(=N\C(=O)c2ccc3nonc3c2)n1CC1CC1 [compound 320] | 6.2 | 139 to 141 |

| SMILES | IC50 (human CB2 receptor) [nM] | melting point [°C] |
| --- | --- | --- |
| Cc1c(C(C)(C)C)s/c(=N\C(=O)c2cccc3cnccc23)n1CC1CC1 [compound 321] | 2.3 | 109 to 110 |
| Cc1c(C(C)(C)C)s/c(=N\C(=O)c2cccc3cccnc23)n1CC1CC1 [compound 322] | 5.6 | 193 to 195 |
| Cc1c(C(C)(C)C)s/c(=N\C(=O)c2cnnc3ccccc23)n1CC1CC1 [compound 325] | 13 | 140 to 141 |
| Cc1c(C(C)(C)C)s/c(=N\C(=O)c2cc3sccc3nc2C(F)(F)F)n1CC1CC1 [compound 328] | 11.8 | 147 to 149 |
| Cc1c(C(C)(C)C)s/c(=N\C(=O)C(C)(C)C)n1CC1CC1 [compound 330] | 13.8 | 102 to 104 |
| Cc1c(C(C)(C)C)s/c(=N\C(=O)CCC(F)(F)F)n1CC1CC1 [compound 335] | 5.5 | 102 to 103 |
| Cc1c(C(C)(C)C)s/c(=N\C(=O)C(F)(F)C(F)(F)C(F)(F)F)n1CC1CC1 [compound 336] | 2.9 | 147 to 148 |
| COCCn1c(C)c(C(C)(C)C)s/c1=N\C(=O)C(F)(F)C(F)(F)C(F)(F)F [compound 338] | 9.1 | 69 to 71 |
| CC(=O)OC(C(=O)/N=c1\sc(C(C)(C)C)c(C)n1CC1CC1)c1ccccc1 (centres unmarked) [compound 341] | 5.3 | 147 to 148 |
| COCCn1c(C)c(C(C)(C)C)s/c1=N\C(=O)c1cccc(C(F)(F)F)c1 [compound 344] | 12.2 | 172 to 173 |
| COCCn1c(C)c(C(C)(C)C)s/c1=N\C(=O)c1cccc(Br)c1 [compound 345] | 12.7 | 89 to 91 |
| COCCn1c(C)c(C(C)(C)C)s/c1=N\C(=O)c1cccc(I)c1 [compound 346] | 13.5 | 119 to 121 |
| COCCn1c(C)c(C(C)(C)C)s/c1=N\C(=O)c1cc(Br)ccc1F [compound 348] | 3.8 | 95 to 97 |
| COCCn1c(C)c(C(C)(C)C)s/c1=N\C(=O)c1cc(F)c(Cl)cc1Cl [compound 349] | 1.9 | 161 to 163 |
| COCCn1c(C)c(C(C)(C)C)s/c1=N\C(=O)c1cccc(OC(F)(F)C(F)F)c1 [compound 350] | 5.2 | 114 to 116 |
| COCCn1c(C)c(C(C)(C)C)s/c1=N\C(=O)c1cc(F)ccc1C [compound 351] | 2.2 | 106 to 107 |
| Cc1c(Cl)s/c(=N\C(=O)c2cccc(C(F)(F)F)c2F)n1CC1CC1 [compound 365] | 3.4 | 130 to 132 |
| O=C(/N=c1\sc2ncccc2n1CC1CC1)c1cccc(C(F)(F)F)c1F [compound 382] | 17 | 156 to 158 |
| Cn1c(C(C)(C)C)c/c(=N\C(=O)c2cccc(Cl)c2Cl)n1CC1CCC1 [compound 481] | 3.4 | 152.5 to 154 |
